In series [1] the target is T1, E1-STS (Homo sapiens, UniProt P08842).
T1 construct: from tissue; host or cells: placental microsomes (100,000 g fraction)
T1 sequence (P08842 22-583): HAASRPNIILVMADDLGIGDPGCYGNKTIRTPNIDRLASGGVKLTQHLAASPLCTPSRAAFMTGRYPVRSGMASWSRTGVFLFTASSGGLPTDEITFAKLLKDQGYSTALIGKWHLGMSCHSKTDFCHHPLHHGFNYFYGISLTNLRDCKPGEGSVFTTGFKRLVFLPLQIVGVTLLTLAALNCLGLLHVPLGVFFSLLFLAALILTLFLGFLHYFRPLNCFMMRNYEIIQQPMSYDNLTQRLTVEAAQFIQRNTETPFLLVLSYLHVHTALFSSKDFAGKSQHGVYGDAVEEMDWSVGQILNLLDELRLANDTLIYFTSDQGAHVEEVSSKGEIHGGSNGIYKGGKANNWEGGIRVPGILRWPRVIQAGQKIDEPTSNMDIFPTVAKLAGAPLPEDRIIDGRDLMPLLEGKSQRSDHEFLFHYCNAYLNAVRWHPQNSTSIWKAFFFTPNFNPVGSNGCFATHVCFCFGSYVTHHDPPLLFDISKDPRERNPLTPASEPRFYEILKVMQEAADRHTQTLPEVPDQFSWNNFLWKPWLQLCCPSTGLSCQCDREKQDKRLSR
Kind of series: Hydrolysis of coumarin sulphate (12) by placental microsomes, TLC. To be noted: 100 μg incubated for 1 hour with placental microsomes. The format is biochemical.

Series [2] in a line: Chemical and thermal stability of compound 12. Type of series: physicochemical. To be noted: sodium hydroxide in methanol. The source says:
Two equivalents of sodium hydroxide are required for consuming excess sulphur trioxide-pyridine complex to yield the neutral sodium sulphate. Insufficient amount of sodium hydroxide will therefore lead to the formation of sodium hydrogen sulphate which is acidic.

The target in series [3] is T2, oestrone sulphatase (Rattus norvegicus, UniProt P15589).
T2 construct: samples of liver tissue were obtained; from tissue; host or cells: rat liver
T2 sequence (P15589 20-577): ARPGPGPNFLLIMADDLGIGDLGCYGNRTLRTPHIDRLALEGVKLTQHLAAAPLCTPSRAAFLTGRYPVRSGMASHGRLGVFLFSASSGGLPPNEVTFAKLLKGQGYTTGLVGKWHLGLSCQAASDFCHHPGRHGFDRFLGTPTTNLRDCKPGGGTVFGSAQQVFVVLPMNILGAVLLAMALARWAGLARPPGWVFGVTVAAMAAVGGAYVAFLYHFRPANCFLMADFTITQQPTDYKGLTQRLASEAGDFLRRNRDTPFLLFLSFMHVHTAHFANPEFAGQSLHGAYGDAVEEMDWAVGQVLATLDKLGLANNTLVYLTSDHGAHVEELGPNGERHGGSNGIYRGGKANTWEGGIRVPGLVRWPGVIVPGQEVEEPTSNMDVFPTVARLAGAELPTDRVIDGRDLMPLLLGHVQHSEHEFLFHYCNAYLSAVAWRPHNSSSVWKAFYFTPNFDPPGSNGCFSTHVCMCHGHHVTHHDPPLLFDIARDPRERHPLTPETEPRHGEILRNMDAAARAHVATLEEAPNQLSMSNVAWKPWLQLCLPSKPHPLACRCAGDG
Kind of series: Inhibition of oestrone sulphatase activity in vivo in rat liver (NOMATE). As to conditions: 0.1 mg/Kg/day for five days orally; rat liver tissue; compared with untreated controls. As to the method:
(§1) Using 17-deoxy oestrone-3-O-sulphamate (NOMATE, FIG. 5 Formula IV where X=—OSO2NH2, Y=—CH2— and R1 and R2=H, and FIG. 13) as a representative example, the ability of this compound to inhibit oestrone sulphatase activity in vivo was examined in rats. The oestrogenicity of this compound was examined in ovariectomised rats. In this model compounds which are oestrogenic stimulate uterine growth.
NOMATE (0.1 mg/Kg/day for five days) was administered orally to rats with another group of animals receiving vehicle only (propylene glycol). At the end of the study samples of liver tissue were obtained and oestrone sulphatase activity assayed using ^3H oestrone sulphate as the substrate as previously described.

The next series deals with uterine growth. Kind of series: In vivo oestrogenicity: uterine weight in ovariectomised rats (NOMATE). Details: species or system rat. As to conditions: 0.1 mg/Kg/day for five days orally. The protocol:
as §1
NOMATE (0.1 mg/Kg/day for five days) was administered orally to rats with another group of animals receiving vehicle only (propylene glycol). At the end of the study uteri were obtained and weighed with the results being expressed as uterine weight/whole body weight×100.

The target of series [4] is T3, oestrone sulphatase (Homo sapiens, UniProt P08842).
T3 sequence (P08842 22-583): T1 sequence (P08842 22-583)

The subject of a further series is uterine weight. Kind of series: Oestrogenic activity: uterine weight in ovariectomised rats (compound 14). Type of series: in vivo, rat. To be noted: 1 mg/kg subcutaneously for 5 days.
In series [5] the target is T4, E1-STS (Rattus norvegicus, UniProt P15589).
T4 construct: The E1-STS activity in the uteri obtained from these animals; from tissue; host or cells: rat uterus
T4 sequence (P15589 20-577): T2 sequence (P15589 20-577)
Kind of series: E1-STS activity in uteri of treated ovariectomised rats. Type of series: in vivo. As to conditions: 1 mg/kg subcutaneously for 5 days, compared with untreated animals.

Another series has as its target T5, sulphatase (Rattus norvegicus, UniProt P15589).
T5 construct: from tissue; host or cells: rat white blood cells
T5 sequence (P15589 20-577): T2 sequence (P15589 20-577)
Kind of series: Sulphatase activity in white blood cells of rats after oral dosing. To be noted: for % Inhibition MD / % Inhibition SD: white blood cells; for % Inhibition SD: single dose. Type of series: in vivo. The protocol: Inhibition of sulphatase activity was assessed in white blood cells (wbcs) that were collected after a SD or MD. Sulphatase activity was assayed using labelled oestrone sulphate as the substrate and measuring the release of oestrone.

The target in series [6] is T6, oestrone sulphatase (E1-STS) (Homo sapiens, UniProt P08842).
T6 sequence (P08842 22-583): T1 sequence (P08842 22-583)
The format is cell-based. To be noted: intact MCF-7 cells, 20 h.

Where two headings read alike, the source gives them in different places.

Turning to `Cc1cc(=O)oc2cc(OS(=O)(=O)[O-])ccc12.[Na+]` [Compound 12, 7-(Sulphoxy)4-Methylcoumarin. sodium salt, reference compound], on E1-STS [1], the “substrate for E1-STS (in words)” value was “is indeed a substrate for the sulphatase”. For the same molecule, the “stability in bases and acidic conditions (in words)” value in [2] is “stable in bases such as sodium hydroxide in methanol but not in acidic conditions”.

Turning to `C[C@@]12CCC[C@H]1[C@@H]1CCc3cc(OS(N)(=O)=O)ccc3[C@H]1CC2` [NOMATE, 17-deoxy oestrone-3-O-sulphamate], the “inhibition of oestrone sulphatase activity in vivo” value against oestrone sulphatase [3] is recorded as 98%. The “effect on uterine growth (oestrogenicity, in words)” value in the series on uterine growth is reported as “no significant effect on uterine growth”. In addition, the “% Inhibition (Mean) Placental Microsomes” value is recorded as 97.2% on oestrone sulphatase [4] (concentration tested 0.1 mM (so in the source)), 99.5% at oestrone sulphatase [4] (concentration tested 1 mM (so in the source)), 99.5% at oestrone sulphatase [4] (concentration tested 10 mM (so in the source)) and 99.7% at oestrone sulphatase [4] (concentration tested 25 mM (so in the source)).

As for `Cc1cc(=O)oc2cc(OS(N)(=O)=O)ccc12` [compound 14], in the series with uterine weight, the “uterine weight (oestrogenic activity, in words)” value is reported as “did not result in any significant increase in the uterine weight”. Moreover, on E1-STS [5], the “inhibition of E1-STS activity in the uteri” value turned out to be 89.4%. In addition, the “% Inhibition MD” value at sulphatase (0.1 mg/kg oral daily for seven days) is 65%; at sulphatase (1.0 mg/kg oral daily for seven days), 85%; at sulphatase (10.0 mg/kg oral daily for seven days), 89%. In addition, the “% Inhibition SD” value on sulphatase (0.1 mg/kg oral) worked out at 72%; on sulphatase (1.0 mg/kg oral), 85%; on sulphatase (10.0 mg/kg oral) it was 96%. In addition, the “oral activity in rats (in words)” value on sulphatase (oral, rats) was “potent oral activity”.

Consider `NS(=O)(=O)Oc1ccc2c(C(F)(F)F)cc(=O)oc2c1` [compound 16, 4-(trifluoromethylcoumarin)-7-O-sulphamate], for which the “inhibition of oestrone sulphatase at 10 μM” value in series [6] stood at 71.5%.

The record behind these values is US7098199B2 (Sterix Limited, priority 1991, dated 2006).
